Results on 22 molecules are retold here after PubChem BioAssay (NCI).

Among the test systems are HOP-92 NSCLC; UO-31 renal; UACC-257 melanoma; OVCAR-4 ovarian; MALME-3M melanoma; HCT-116 colon; CAKI-1 renal; HT29 colon; TK-10 renal; CCRF-CEM leukemia.
Common to all, as to assay: NCI anticancer screen, dose series, 48 h

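Protocol summary: plate cells (96-well), add compound at 5 concentrations, incubate 48 h, interpolate endpoints linearly. At the GI50, growth is halved. TGI: total growth inhibition.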

For the molecule `C=C1C(=O)C23C(CC(OC(C)=O)C1[C@@H]2OC(C)=O)C1(C)C(OC(C)=O)CCC(C)(C)C1C[C@@H]3OC(C)=O` (stereo partly specified), the TGI in the experiment on HOP-92 NSCLC turned out to be 1.35 µM; with UO-31 renal, 3.19 µM; in the experiment on UACC-257 melanoma, 3.14 µM; with OVCAR-4 ovarian it was 3.41 µM; in the experiment with MALME-3M melanoma, 3.01 µM; in the experiment on HCT-116 colon, 2.97 µM. Moreover, the TGI was found to be 1.94 µM with CAKI-1 renal and 2.22 µM in the experiment with HT29 colon.

`Cc1cc(Br)cc(C)c1NC(=O)C(=O)C(C(=O)c1ccc(Cl)c(Cl)c1)C1OC(=O)c2ccccc21` (stereo unspecified): the TGI in the experiment on TK-10 renal, in the experiment on UO-31 renal, in the experiment with UACC-257 melanoma, in the experiment with CCRF-CEM leukemia, with OVCAR-4 ovarian and with MALME-3M melanoma was above 100 µM throughout. Moreover, the TGI in the experiment on HCT-116 colon, in the experiment on CAKI-1 renal and in the experiment with HT29 colon was above 100 µM each time.

As to `O=C1CCCc2c(O)ccc(O)c21`, the TGI in the experiment with TK-10 renal is above 100 µM; in the experiment on UO-31 renal, above 100 µM; in the experiment on UACC-257 melanoma, above 100 µM; with CCRF-CEM leukemia, 71.7 µM; in the experiment on OVCAR-4 ovarian, above 100 µM; with MALME-3M melanoma, above 100 µM. For the same molecule, the TGI with HCT-116 colon and in the experiment with HT29 colon was above 100 µM throughout.

Consider `OCC(O)C(OC1OC(CO)C(O)C(O)C1O)c1nn(-c2ccc(F)cc2)c2nc3cc(Cl)c(Cl)cc3cc12` (stereo unspecified), for which the TGI with TK-10 renal, with UO-31 renal, with UACC-257 melanoma, in the experiment with CCRF-CEM leukemia, with OVCAR-4 ovarian and in the experiment on MALME-3M melanoma was above 100 µM throughout. Also, the TGI with HCT-116 colon and in the experiment on HT29 colon was above 100 µM throughout.

Turning to `CN(C)c1ccc(/C=N/Nc2ccc(-c3nc4ccccc4[nH]3)cc2)cc1`, the GI50 was 47.3 µM with TK-10 renal; 12.4 µM with HOP-92 NSCLC; 7.44 µM in the experiment on UO-31 renal; 9.81 µM in the experiment with UACC-257 melanoma; 15.1 µM in the experiment with HCT-116 colon; 5 µM in the experiment with CAKI-1 renal. For the same molecule, the TGI with TK-10 renal is above 50 µM; in the experiment with HOP-92 NSCLC, above 50 µM; in the experiment on UO-31 renal it was 23.8 µM; in the experiment on UACC-257 melanoma, 25.8 µM; with HCT-116 colon it was above 50 µM; in the experiment on CAKI-1 renal, above 50 µM.

Turning to `NC(=O)c1ccc(NC(=O)c2oc3ccccc3c2-c2cnn(-c3ccccc3)c2)cc1`, the GI50 in the experiment with TK-10 renal was above 23.3 µM; with HOP-92 NSCLC it was 1.69 µM; in the experiment with UO-31 renal it was above 100 µM; with UACC-257 melanoma it was above 100 µM; with MALME-3M melanoma, above 100 µM. The TGI in the experiment on TK-10 renal was above 100 µM; in the experiment with HOP-92 NSCLC, 6.46 µM; in the experiment with UO-31 renal it was above 100 µM; in the experiment on UACC-257 melanoma, above 100 µM; in the experiment on CCRF-CEM leukemia, above 23.2 µM; in the experiment on MALME-3M melanoma, above 100 µM.

With `COc1ccc(/C=C/CO)cc1OC`, the TGI in the experiment with TK-10 renal, with HOP-92 NSCLC, in the experiment on UO-31 renal, in the experiment on UACC-257 melanoma, in the experiment with MALME-3M melanoma and in the experiment on HT29 colon was above 100 µM in each case.

As to `Cc1ccc(NC(=O)NC23CC4CC(CC(F)(C4)C2)C3)cc1`, the TGI in the experiment on TK-10 renal, in the experiment on HOP-92 NSCLC, in the experiment on UO-31 renal, with UACC-257 melanoma, in the experiment on CCRF-CEM leukemia and with MALME-3M melanoma was above 100 µM in each case. Moreover, the TGI in the experiment on HCT-116 colon and in the experiment on HT29 colon was above 100 µM each time.

Turning to `C[Si](C)(C)[C@@]1([Se]c2ccccc2)CC[C@@H]1C(=O)c1ccccc1`, the TGI in the experiment on TK-10 renal, in the experiment on UO-31 renal, in the experiment on UACC-257 melanoma, in the experiment with CCRF-CEM leukemia, in the experiment on OVCAR-4 ovarian and with MALME-3M melanoma was above 100 µM throughout. The TGI in the experiment with HCT-116 colon, with CAKI-1 renal and in the experiment on HT29 colon was above 100 µM throughout.

Consider `COc1ccccc1OCC(COC(=O)Nc1ccc(C)cc1)OC(=O)Nc1ccc(C)cc1` (stereo unspecified), for which the TGI was found to be 47 µM with TK-10 renal; 29 µM with HOP-92 NSCLC; 34.3 µM in the experiment with UO-31 renal; 49.7 µM in the experiment with UACC-257 melanoma; 45.3 µM with CCRF-CEM leukemia; 48.3 µM with MALME-3M melanoma. Also, the TGI in the experiment on HCT-116 colon is 31.3 µM; in the experiment on CAKI-1 renal, 34.3 µM; in the experiment on HT29 colon, 38.3 µM.

For `O=[N+]([O-])C(=C(c1ccccc1)c1ccccc1)[N+](=O)[O-]`, the TGI with TK-10 renal came to 33.2 µM; in the experiment with UO-31 renal, 36.6 µM; in the experiment on UACC-257 melanoma, 25.8 µM; with CCRF-CEM leukemia, 22.1 µM; in the experiment with OVCAR-4 ovarian, 28.6 µM; in the experiment on HCT-116 colon, 26.3 µM. Further, in the experiment with CAKI-1 renal, the TGI came to 43.2 µM.

Take `O=C(O)c1oc2ccc([N+](=O)[O-])c3c2c1CCC3`: the TGI in the experiment on TK-10 renal, in the experiment on HOP-92 NSCLC, in the experiment on UO-31 renal, in the experiment on UACC-257 melanoma, with OVCAR-4 ovarian and in the experiment with MALME-3M melanoma was above 100 µM each time. The TGI in the experiment with HCT-116 colon, in the experiment with CAKI-1 renal and with HT29 colon was above 100 µM in each case.

As to `Cc1nc(Nc2ccc([N+](=O)[O-])cc2)sc1C(=O)/C=C/c1ccc(N(C)C)cc1`, the TGI in the experiment on TK-10 renal, in the experiment with HOP-92 NSCLC, in the experiment with UO-31 renal, with UACC-257 melanoma, in the experiment on CCRF-CEM leukemia and with MALME-3M melanoma was above 100 µM in each case. In addition, the TGI with CAKI-1 renal and in the experiment on HT29 colon was above 100 µM each time.

On to `COc1ccccc1OCC(O)CO` (stereo unspecified), for which the GI50 in the experiment on TK-10 renal, in the experiment with HOP-92 NSCLC, in the experiment with UO-31 renal, with UACC-257 melanoma, with OVCAR-4 ovarian and with MALME-3M melanoma was above 100 µM each time. The GI50 with HCT-116 colon, in the experiment with CAKI-1 renal and with HT29 colon was above 100 µM throughout. The TGI in the experiment with TK-10 renal, with HOP-92 NSCLC, with UO-31 renal, in the experiment on UACC-257 melanoma, in the experiment with OVCAR-4 ovarian and in the experiment with MALME-3M melanoma was above 100 µM throughout. Further, the TGI with HCT-116 colon, in the experiment on CAKI-1 renal and in the experiment with HT29 colon was above 100 µM throughout.

For `ClCc1ccc(Cn2cnc3ncnc(Cl)c32)cc1`, the GI50 with TK-10 renal is 1.48 µM; in the experiment with HOP-92 NSCLC it was 1.17 µM; in the experiment on UO-31 renal, 4.82 µM; in the experiment on UACC-257 melanoma it was 1.57 µM; in the experiment on CAKI-1 renal, 2.01 µM; in the experiment with HT29 colon, 1.22 µM. In addition, the TGI in the experiment with TK-10 renal was 2.92 µM; in the experiment on HOP-92 NSCLC it was 2.52 µM; in the experiment on UO-31 renal, 66.7 µM; in the experiment on UACC-257 melanoma, 3.48 µM; in the experiment on CAKI-1 renal, 4.42 µM; with HT29 colon, 3.59 µM.

Take `CC1=NN(C(=O)Cc2ccccc2)C(=O)/C1=C\c1cccc(O)c1`: the TGI in the experiment on TK-10 renal, with UO-31 renal, in the experiment with UACC-257 melanoma, in the experiment on CCRF-CEM leukemia, in the experiment on OVCAR-4 ovarian and in the experiment with MALME-3M melanoma was above 100 µM throughout. For the same molecule, the TGI in the experiment with HCT-116 colon, in the experiment with CAKI-1 renal and with HT29 colon was above 100 µM throughout.

In the case of `CCCCCCCCSC(SCCCCCCCC)=C1C(=O)N(c2ccccc2)N=C1C`, the TGI was above 100 µM with TK-10 renal; 77.8 µM with HOP-92 NSCLC; above 100 µM in the experiment with UO-31 renal; 93.1 µM in the experiment on UACC-257 melanoma; 44 µM in the experiment with CCRF-CEM leukemia; above 100 µM in the experiment on MALME-3M melanoma. The TGI in the experiment with HCT-116 colon was 38.7 µM; with CAKI-1 renal, 90.7 µM; in the experiment with HT29 colon it was above 100 µM.

For the molecule `NC(=O)Cn1c(=O)[nH]c(=O)c2[nH]cnc21`, the TGI with TK-10 renal, in the experiment with UO-31 renal, in the experiment on UACC-257 melanoma, in the experiment with CCRF-CEM leukemia, with MALME-3M melanoma and in the experiment with HCT-116 colon was above 100 µM each time. The TGI with HT29 colon is above 100 µM.

With `COc1ccc(C2CC(C)=Nc3c([nH]c(=S)[nH]c3=O)N2)cc1` (stereo unspecified), the TGI is 58.1 µM with TK-10 renal; above 100 µM in the experiment on HOP-92 NSCLC; 32.8 µM in the experiment on UO-31 renal; 33.9 µM in the experiment with UACC-257 melanoma; 54.4 µM in the experiment on CCRF-CEM leukemia; above 100 µM with MALME-3M melanoma. Moreover, the results for the TGI in the experiment with HCT-116 colon, with CAKI-1 renal and in the experiment on HT29 colon were 30.1 µM, 65 µM and 47.3 µM, respectively.

In the case of `CCCC/C(C)=N/NC(N)=S`, the TGI with TK-10 renal, with HOP-92 NSCLC, with UO-31 renal, with UACC-257 melanoma, with CCRF-CEM leukemia and in the experiment on MALME-3M melanoma was above 100 µM throughout. The TGI with HCT-116 colon, in the experiment on CAKI-1 renal and with HT29 colon was above 100 µM in each case.

For the molecule `N#CCc1nc2c(s1)C(=O)c1ccccc1C2=O`, the TGI in the experiment on TK-10 renal was found to be 36.5 µM; in the experiment with HOP-92 NSCLC, 34.4 µM; in the experiment on UO-31 renal it was 29.3 µM; with UACC-257 melanoma, 28.5 µM; in the experiment on OVCAR-4 ovarian it was 31.1 µM; in the experiment with MALME-3M melanoma, 34.3 µM. Also, the TGI in the experiment on HCT-116 colon was 27.6 µM; in the experiment with CAKI-1 renal, 38.6 µM; in the experiment on HT29 colon it was 46.5 µM.

As for `C[P+](C)(CC(F)(F)F)c1ccccc1`, the TGI in the experiment with TK-10 renal, with UO-31 renal, in the experiment with UACC-257 melanoma, in the experiment with CCRF-CEM leukemia, in the experiment on MALME-3M melanoma and in the experiment with HCT-116 colon was above 100 µM throughout. Also, the TGI with HT29 colon was above 100 µM.
